Assays:
[1] = target: Beta-1 adrenergic receptor (Cavia porcellus, UniProt B0FL73); test: Compound was tested for its Beta-1 adrenergic receptor antagonistic activity on guinea pig atria; format: functional; details: read-out: pA2 (converted)
[2] = target: Beta-2 adrenergic receptor (Cavia porcellus, UniProt Q8K4Z4); test: Beta-2 adrenergic receptor antagonistic activity on guinea pig tracheal chains; format: functional; details: read-out: pA2 (converted)
[3] = target: Beta-2 adrenergic receptor (Bos taurus, UniProt Q28044); test: Compound was tested for inhibition of [3H]dihydroalprenolol radioligand binding to Beta-2 adrenergic receptor in calf lung membranes.; format: cell membranes
Chain of Beta-2 adrenergic receptor (Bos taurus, UniProt Q28044) (Q28044 whole entry): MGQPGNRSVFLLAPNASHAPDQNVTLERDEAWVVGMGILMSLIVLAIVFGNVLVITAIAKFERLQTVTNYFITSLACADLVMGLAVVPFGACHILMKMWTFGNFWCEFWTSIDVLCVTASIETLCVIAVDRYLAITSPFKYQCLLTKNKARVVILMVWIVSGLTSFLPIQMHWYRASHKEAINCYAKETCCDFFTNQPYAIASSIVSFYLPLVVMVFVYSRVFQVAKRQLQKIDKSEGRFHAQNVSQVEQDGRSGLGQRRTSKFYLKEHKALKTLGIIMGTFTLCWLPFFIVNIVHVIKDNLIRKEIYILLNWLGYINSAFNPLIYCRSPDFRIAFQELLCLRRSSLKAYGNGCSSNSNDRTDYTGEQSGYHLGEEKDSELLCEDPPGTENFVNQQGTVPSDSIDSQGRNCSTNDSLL

Chain of Beta-1 adrenergic receptor (B0FL73 whole entry): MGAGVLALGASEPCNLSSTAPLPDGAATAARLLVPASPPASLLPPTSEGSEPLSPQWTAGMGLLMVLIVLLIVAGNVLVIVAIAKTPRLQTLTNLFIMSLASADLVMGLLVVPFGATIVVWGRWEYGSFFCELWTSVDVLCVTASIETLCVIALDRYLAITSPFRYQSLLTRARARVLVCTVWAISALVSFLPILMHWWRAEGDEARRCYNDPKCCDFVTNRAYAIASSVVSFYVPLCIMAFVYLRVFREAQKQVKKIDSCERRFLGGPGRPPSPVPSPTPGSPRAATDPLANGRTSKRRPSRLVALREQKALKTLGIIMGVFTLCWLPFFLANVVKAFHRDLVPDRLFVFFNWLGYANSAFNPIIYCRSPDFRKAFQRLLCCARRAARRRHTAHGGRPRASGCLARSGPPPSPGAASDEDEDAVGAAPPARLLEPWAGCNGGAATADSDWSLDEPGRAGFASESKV
Chain of Beta-2 adrenergic receptor (Cavia porcellus, UniProt Q8K4Z4) (Q8K4Z4 whole entry): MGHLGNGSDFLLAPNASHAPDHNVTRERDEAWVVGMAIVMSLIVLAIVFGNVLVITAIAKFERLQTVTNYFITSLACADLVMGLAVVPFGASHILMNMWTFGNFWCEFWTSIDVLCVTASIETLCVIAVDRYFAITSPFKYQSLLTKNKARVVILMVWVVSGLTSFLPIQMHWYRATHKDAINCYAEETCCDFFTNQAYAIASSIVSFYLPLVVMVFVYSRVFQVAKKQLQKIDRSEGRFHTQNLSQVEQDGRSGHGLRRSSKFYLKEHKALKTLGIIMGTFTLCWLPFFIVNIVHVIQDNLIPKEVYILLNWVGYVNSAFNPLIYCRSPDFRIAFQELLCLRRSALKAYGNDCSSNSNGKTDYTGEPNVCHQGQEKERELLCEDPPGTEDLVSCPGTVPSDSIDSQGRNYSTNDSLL

Structure (SMILES)	Kb [1] [nM]	Kb [2] [nM]	IC50 [3] [nM]
CC(C)(C)NCC(O)CON=C1c2ccccc2-c2ccccc21 (stereo unspecified)	33.9	66.1	24.6
CCC(C)(C)NC[C@H](O)CON=C1c2ccccc2-c2ccccc21	16.6	74.1	
CC(C)(C)NC[C@@H](O)CON=C1c2ccccc2-c2ccccc21	13.2	18.2	20.1
CCC(C)(C)NCC(O)CON=C1c2ccccc2-c2ccccc21 (stereo unspecified)	34.7	85.1	
CC(C)(C)NC[C@H](O)CON=C1c2ccccc2-c2ccccc21	37.2	17	30.8
Cc1ccc(OCC(O)CNC(C)C)c2c1CCC2 (stereo unspecified)	97.7	31.6	17.6

From ChEMBL document CHEMBL1122110, “Use of (S)-(trifloxymethyl)oxirane in the synthesis of a chiral beta-adrenoceptor antagonist, (R)- and (S)-9-[[3-(tert-butylamino)-2-hydroxypropyl]oximino]fluorene” (J Med Chem, 1982)
